# Measurements from patent US20080057129A1, “Drug microparticles” (priority 2006, published 2008).
# Legend:
# [1] = Solubility of drug in menthol melt; type: physicochemical; settings: for Solubility: in menthol melt
# Experimental: Menthol (10 grams) was melted on a stirring hot plate with magnetic stirring, then heated to the desired temperature indicated in Table 1. The desired drug was added in small increments (approximately 0.1 grams) and stirred to obtain a clear solution. The desired drug was added in increments until no more drug dissolved in the menthol.
# Menthol (10 grams) was melted on a stirring hot plate with magnetic stirring, then heated to the desired temperature indicated in Table 1. The Azithromycin was added in small increments (0.1 grams) and stirred to obtain a clear solution. The drug was added in increments until no more drug dissolved in the menthol.
# [2] = test system: antimicrobial peptide gene expression; settings: Wang et al., J. Immunol. 2004; cited from earlier work
structure (smiles),measurement,setting,value
CC[C@H]1OC(=O)[C@H](C)[C@@H](O[C@H]2C[C@@](C)(OC)[C@@H](O)[C@H](C)O2)[C@H](C)[C@@H](O[C@@H]2O[C@H](C)C[C@H](N(C)C)[C@H]2O)[C@](C)(O)C[C@@H](C)CN(C)[C@H](C)[C@@H](O)[C@]1(C)O [Azithromycin],Solubility,[1]; 63 °C,40.0 % w/w
CC(=O)O[C@@]12CO[C@@H]1C[C@H](O)[C@@]1(C)C(=O)[C@H](O)C3=C(C)[C@@H](OC(=O)[C@H](O)[C@@H](NC(=O)OC(C)(C)C)c4ccccc4)C[C@@](O)([C@@H](OC(=O)c4ccccc4)[C@H]21)C3(C)C [Docetaxel],solubility in the menthol melt,[1]; without the additives PEG 6000 and Poloxamer 407,soluble
CCC(C)n1ncn(-c2ccc(N3CCN(c4ccc(OCC5COC(Cn6cncn6)(c6ccc(Cl)cc6Cl)O5)cc4)CC3)cc2)c1=O (stereo not drawn) [Itraconazole],solubility in menthol,[1]; 60° C.,1%
same,Solubility,[1]; 61 °C,1.0 % w/w
O=C(O)c1ccccc1O [Salicylic acid],Solubility,[1]; 43 °C,16.0 % w/w
"C=C1/C(=C\C=C2/CCC[C@]3(C)[C@@H]([C@H](C)CCCC(C)(C)O)CC[C@@H]23)C[C@@H](O)C[C@@H]1O [calcitriol, 1,25-dihydroxyvitamin D3]",induction of antimicrobial peptide gene expression,[2],inducer of the antimicrobial peptide gene expression
